Drawing on a melting point compilation (Tetko et al.; mined from patent text by program, amines drawn as free bases though some values may be those of a salt), this text covers melting point for 86 molecules.

With `COc1ccc(C(CC(=O)Nc2ccc(NC(=O)Nc3ccccc3C)cc2)NC(=O)c2ccc(C(=O)O)cc2)cc1OC` (stereo unspecified), the melting point (usually the temperature of the solid-liquid transition) came out at 166 °C.
The figure for `Cc1ccc(S(=O)(=O)NNC2=CC(=O)CC(c3ccccc3Cl)C2)cc1` (stereo unspecified) is 235 to 236 °C.
As to `CCOC(=O)c1c(Cn2cncn2)nc2sc3c(c2c1-c1ccc(OC)c(OC)c1)CCNC3`, the melting point fell in the range of 164 to 165 °C.
The figure for `O=Cc1ccc(OCc2coc(/C=C/c3ccc(S(=O)C(F)(F)F)cc3)n2)cc1` (stereo unspecified) is 144 to 147 °C; for `O=C(c1ccccc1)N1CC2C(C1)C2Nc1ncc2cc(-c3ccccc3Cl)c(=O)n(-c3ccc(F)cc3)c2n1` (stereo unspecified) it is 242 to 244 °C.
As for `C=CC(=O)Oc1c(Cc2cc(C)cc(C(C)(C)C)c2O)cc(C)cc1C(C)(C)C`, the figure is 132 to 134 °C; as for `CNc1c(NCCSCc2[nH]cnc2C)c(=O)c1=O`, 208 °C.
The figure for `COc1ccc(N2CCN(c3c(C)c(C)c4c(c3-c3ccoc3)CC(C)(C)O4)CC2)cc1` is 192 to 195 °C; for `CC(=O)OC1CC=C(CCCCCCC(=O)O)C1=O` (stereo unspecified) it is 62 to 65 °C.
With `CCN1CCC2(CC1)c1ccccc1Sc1c(O)cccc12`, the melting point fell in the range of 223 to 225 °C.
As for `CCCCCCCCCCCCCCCC(=O)N[C@H]1CCCNC(=O)C1`, the figure is 99 to 100 °C; as for `Cc1cc(SCc2ccc3cn(-c4ccc(C(F)(F)F)cc4)nc3c2)ccc1OCC(=O)O`, 142 to 144 °C.
As for `CCc1cc(CNc2cccc3ccccc23)c(OC)nc1C`, the figure is 82 to 83 °C; as for `CC(C)c1cccc(C(C)C)c1NC(=O)C1CCCC(CCCCCOc2ccccc2)(c2ccccc2)C1=O` (stereo unspecified), 150 to 153 °C.
The figure for `O=C(c1ccccc1Cl)c1cccnc1Br` is 76.3 °C; for `CCCc1cc(OC)c(OC)c(C(=O)NC[C@@H]2CCCN2CC)c1OC` it is 68 to 70 °C; for `CC(CO)CCCC(C)C1CCC2C3CC=C4CCCC(O)C4(C)C3CCC12C` (stereo unspecified) it is 158 to 160 °C.
With `COc1cc(N)c(Cl)cc1C(=O)NCCN1CCC(n2c(=O)[nH]c3ccccc32)CC1`, the melting point worked out at 230 °C.
As for `CC(C)(C)OC(=O)CCc1csc(CCNc2nc(N)c3ncn(C4OC(CO)C(O)C4O)c3n2)c1` (stereo unspecified), the figure is 120 to 124 °C; as for `CC(C)Cn1c(C(O)c2ccccc2)nc2cnc3ccccc3c21` (stereo unspecified), 160 to 166 °C.
As for `O=C(c1ccc(CCCCc2ccccc2)cc1)N(O)Cc1ccccc1`, the figure is 83.5 to 85 °C.
The figure for `Cc1nc2ccccc2n2cnc(C(=O)OC(C)C)c12` is 182 to 183 °C; for `N#CC(=Cc1ccc2c(c1)OCCO2)c1cccnc1` it is 158 to 159 °C; for `CN(C)c1ncc(-c2cccc(-n3cnc4cc(-c5ccoc5)ccc43)c2)cn1` it is 183 to 184 °C.
For `O=C(O)CN1C(=O)CC1SCc1ccccc1` (stereo unspecified), the melting point stood at 110 °C.
`CCOC(=O)Cc1c(C)n(Cc2ccc3ccccc3c2)c2ccc(OCc3csc(-c4ccccc4)n3)cc12`: the melting point lay in the range of 118 to 119 °C.
`CCC(=O)NC1CCc2c(ccc(OC)c2N)C1` (stereo unspecified) displayed a melting point of 141 °C.
Molecule `CC#CCOc1ccc(S(=O)(=O)NC(C(=O)NO)c2ccc(OCCN3CCN(C(=O)OC(C)(C)C)CC3)cc2)cc1` (stereo unspecified) showed a melting point of 92 to 95 °C.
The molecule `O=[N+]([O-])c1ccc(CP2(=O)OCCCO2)cc1` displayed a melting point of 144 to 145 °C.
Consider `CCC(C)NC(C(=O)NCCCC(c1ccc(F)cc1)c1ccc(F)cc1)C(C)C` (stereo unspecified), for which the melting point is 77 to 81 °C.
For the molecule `N#Cc1c(Cc2ccccc2)nn(C2CCCC2)c1N`, the melting point is 180 to 182 °C.
The figure for `CCON=C(C)c1cccc(Oc2nc(OC)cc(OC)n2)c1C(=O)OC` is 93 to 95 °C; for `Cc1c(NC(=O)c2ccccc2NCc2ccc(=O)[nH]c2)cccc1C(F)(F)F` it is 191 to 192 °C; for `O=C(N[C@H](Cc1ccccc1)C(=O)O)OCc1ccc2oc(-c3ccccc3)cc2c1` it is 173 to 174 °C.
Regarding `Nc1ccc(C#CCCN2CCC(O)(c3ccc(Cl)cc3)CC2)cc1`, the melting point was in the range of 134 to 136 °C.
As for `O=C1NC(N2CCN(c3ccncc3)CC2)c2ccccc21` (stereo unspecified), the figure is 210 to 214 °C.
The molecule `COc1cccc2c(Nc3ccc(C(=O)NC4CCN(Cc5ccccc5)CC4)cc3)c(C(=O)NC3CCN(CCc4ccccc4)CC3)cnc12` had a melting point of 216 to 220 °C.
`CNc1nc(C=CC(=O)OC)c(-c2ccncc2)s1` had a melting point of 166 to 167 °C.
For `Cc1sc(C=O)cc1C(=O)O`, the melting point was 173 °C.
As for `CCNC(=O)Cc1ccc2ccn(C3CCN(CCc4ccccc4F)CC3)c2c1`, the melting point lay within 147 to 149 °C.
`[N-]=[N+]=C1C(=O)Oc2ccc(S(=O)(=O)Cl)cc2C1=O`: the melting point is 185 °C.
As for `Cc1ccc(-c2[nH]nc(COCCCO)c2-c2ccc(S(N)(=O)=O)cc2)cc1`, the figure is 85 to 86 °C.
As for `COc1c(C(C)(C)C)cc(C=O)c(O)c1Br`, the figure is 123 to 124 °C; as for `CCOc1ccc(S(=O)(=O)Nc2cccnc2Nc2ccccc2)cc1`, 161 to 162 °C.
The figure for `Cc1ccc(-c2cnc(-c3cc(C(F)(F)F)cs3)s2)s1` is 131 to 133 °C; for `CC1(Cn2c(=O)oc3ccc(Br)cc32)Cn2cc([N+](=O)[O-])nc2O1` (stereo unspecified) it is 243 to 246 °C.
With `Nc1nc(N)c2cc(Cc3ccc(Cl)cc3)ccc2n1`, the melting point was in the range of 224 to 225 °C.
The figure for `O=C1CC(C(=O)C(F)(F)F)Cc2ccccc21` (stereo unspecified) is 48 to 49 °C; for `CC(C)c1ccc(-c2cccc(-c3cccc(C(=O)O)c3)n2)cc1` it is 215 to 216 °C.
The figure for `CCCCCCC(C(=O)O)n1ccc2cc(-c3ccccc3-c3nn[nH]n3)ccc21` (stereo unspecified) is 105 to 115 °C; for `FC(F)(F)c1cccc(Nc2nc(NCc3ccco3)nc(-c3ccccc3)n2)c1` it is 133 to 134 °C; for `COCOc1ccccc1-c1cc(-c2ccc(C(=O)O)cc2)c(C#N)c(NC(=O)c2cccs2)n1` it is 205 to 206 °C.
The molecule `CCCC=Cc1c(C(C)C)nc(C(C)C)c(CO)c1-c1cccc(Cl)c1` had a melting point of 101 to 104 °C.
Turning to `Cc1nnc(-c2ccccc2F)n2nc(OCc3cn(C)nn3)c(-c3ccsc3)c12`, the melting point was in the range of 181 to 186 °C.
The figure for `Cc1cc(C)cc(CNC(=O)C(Cc2c[nH]c3ccccc23)NC(=O)c2ccccc2)c1` (stereo unspecified) is 177 to 178 °C.
The molecule `Nc1cc(-n2cc(C(=O)O)c(=O)c3cc(F)c(F)c(Cl)c32)c(Cl)cc1F` yielded a melting point of 237 to 242 °C.
The figure for `O=C(Nc1ccc2cc(CN3CCCC3)cnc2c1)N1CCC(c2ccc(Cl)cc2)CC1` is 249 to 251 °C; for `O=C(Cc1ccccc1)OCCOC(=O)NC1(C(=O)O)CC1` it is 142 to 146 °C; for `CCOC(=O)c1cc(C#N)cc(C(F)(F)F)n1` it is 71.5 °C.
Take `O=C(O)c1ccc(C2=NCCO2)nc1`: the melting point was in the range of 286 to 287 °C.
`Cc1[nH]c(=O)sc1C(=O)c1ccc(N(C)C)cc1` had a melting point of 224 to 226 °C.
The figure for `COC(=O)C1=C(C)NC(c2cnc(Cl)s2)=NC1c1ccc(F)cc1Cl` (stereo unspecified) is greater than 230 °C.
The figure for `CCCOc1ccc(-c2ccc(OCC(CN3C(=O)NC(C)(C)C3=O)N(O)C=O)cc2)cc1` (stereo unspecified) is 158 to 160 °C; for `Cc1cc(Br)cnc1NCCCNC1=NS(=O)N=C1NCc1ccncn1` (stereo unspecified) it is 171 to 172 °C; for `CC(c1oc2ccccc2c(=O)c1-c1cccc(F)c1)n1nc(-c2ccc(C=O)o2)c2c(N)ncnc21` (stereo unspecified) it is 215 to 217 °C.
The figure for `CSc1ccc(-c2cc3ncn([C@H](C)[C@](O)(Cn4cncn4)c4ccc(F)cc4F)c(=O)c3s2)cc1` is 223 to 224 °C; for `O=C1CC2c3cc(F)ccc3CCN2C2CCCCC12` (stereo unspecified) it is 130 to 136 °C; for `CCCC(CC)(C(=O)N(C)C)n1cc(C)c(-c2ccccc2)n1` (stereo unspecified) it is 147 to 148 °C.
In turn, `Cc1cc(C)cc(OCC(O)CNc2nc(-c3ccccc3)nc3ccccc23)c1` (stereo unspecified) showed a melting point of 170 to 172 °C.
As for `O=C(O)Cc1nn(CC(=S)Nc2cc(C(F)(F)F)ccc2Br)c(=O)c2ccccc12`, the figure is 176 to 177 °C.
For `COc1c(Cl)cc(Cn2c(S)nc3ccccc32)cc1Cl`, the melting point was 217 to 218 °C.
`Cc1cc(-c2ccc(C(F)(F)F)nc2)nc(-c2cccc(-c3cccc(S(N)(=O)=O)c3)n2)n1` registered a melting point of 254 °C.
The molecule `COc1cc2ncnc(NC3=CC(=O)C4(c5ccccc5)OC4C3=O)c2cc1OC` (stereo unspecified) displayed a melting point of 252 to 253 °C.
The figure for `CN1CCN(c2cccc3ccc(N)cc23)CC1` is 157 to 159 °C; for `COc1ccc(S(=O)(=O)Nc2ccccc2OC)cc1` it is 85.5 to 87 °C.
As for `CCCCCCn1c(=O)c2c(ncn2CCCCC(C)O)n(C)c1=O` (stereo unspecified), the figure is 68 to 69 °C.
As for `CCOC(=O)C1=C(C)NC(CSC(=O)c2ccc(N)cc2)=C(C(=O)OCC)C1c1cccc([N+](=O)[O-])c1` (stereo unspecified), the figure is 78 to 80 °C.
`CCC1(N2C(=O)c3c(F)c(F)c(F)c(F)c3C2=O)C(=O)NC(=O)N(c2ccccc2)C1=O` (stereo unspecified) came in with a melting point of 218 to 220 °C.
The figure for `CCCCCCCCCCOc1ccc([N+](=O)[O-])cc1OCCCCCCCCCC` is 60 to 61 °C; for `OCc1cn(-c2ccc(F)c(Cl)c2)cn1` it is 130 to 135 °C; for `COc1ccc(N2CCN(CCc3ccc4[nH]c(=O)oc4c3)CC2)c2ccccc12` it is 200 °C.
`CC(C)(C)[Si](C)(C)Oc1ccc2cc3c(cc2c1)C(=O)c1cc2cc(O[Si](C)(C)C(C)(C)C)ccc2cc1C3=O`: the melting point is greater than 270 °C.
Take `O=c1[nH]c2cc(Cl)cc(Cl)c2c(O)c1Sc1ccc(NC(=S)NCc2ccccc2)cc1`: the melting point is 282 °C.
As for `Cc1nnsc1C(=O)Nc1ccc(-n2nc(C(F)(F)F)c(Cl)c2C2CC2)c(F)c1`, the figure is 143 to 147 °C.
The figure for `OC1CCCN2CCCCC12` (stereo unspecified) is 70 °C.
As for `Cc1ccc(C(Cn2cncn2)=NOCc2c(Cl)cccc2Cl)c(Cl)c1`, the melting point is 97 to 99 °C.
